In patent US9428459B2, “Difluoromethyl-nicotinic- tetrahydronaphtyl carboxamides” (BAYER CROPSCIENCE AG, priority 2012, dated 2016) one finds logP, chromatographic logP and biological efficacy data, which are given here for 20 compounds.

Series [1] is described as follows: log P by HPLC on reversed phase columns (EEC directive 79/831 Annex V.A8). The series is classed as physicochemical. The following applies: method [a]: LC-MS at pH 2.7, 0.1% formic acid in water / acetonitrile, gradient 10% to 95% acetonitrile; for chromatographic logP: reversed phase HPLC columns. The protocol:
Measurement of log P values was performed according EEC directive 79/831 Annex V.A8 by HPLC (High Performance Liquid Chromatography) on reversed phase columns with the following methods: ^[a]Measurement of LC-MS was done at pH 2.7 with 0.1% formic acid in water and with acetonitrile (contains 0.1% formic acid) as eluent with a linear gradient from 10% acetonitrile to 95% acetonitrile. Calibration was done with not branched alkan2-ones (with 3 to 16 carbon atoms) with known log P-values (measurement of log P values using retention times with linear interpolation between successive alkanones). lambda-maX-values were determined using UV-spectra from 200 nm to 400 nm and the peak values of the chromatographic signals.

The next series has as its system Alternaria brassicae. In words: In vivo preventive test on Alternaria brassicae (leaf spot on radish). The conditions noted are these: dose 500 ppm, radish plants, preventive spray, grading 6 days after contamination. The protocol: Radish plants (“Pernod Clair” variety), sown in starter cups on a 50/50 peat soil-pozzolana substrate and grown at 17° C., are treated at the cotyledon stage by spraying with the active ingredient prepared as described above. Plants, used as controls, are treated with the mixture of acetone/tween/DMSO/water not containing the active material. After 24 hours, the plants are contaminated by spraying the cotyledons with an aqueous suspension of Alternaria brassicae spores (50 000 spores per ml). The spores are collected from a 15-day-old culture. The contaminated radish plants are incubated at 20° C. and at 100% relative humidity. Grading (% of efficacy) is carried out 6 days after the contamination, in comparison with the control plants.

The next series deals with Pyrenophora teres. In words: In vivo preventive test on Pyrenophora teres (net blotch on barley). The conditions noted are these: dose 500 ppm, barley plants, preventive spray, grading 14 days after contamination. As to the method: Barley plants (“Plaisant” variety), sown in starter cups on a 50/50 peat soil-pozzolana substrate and grown at 22° C., are treated at the 1-leaf stage (10 cm height) by spraying with the active ingredient prepared as described above. Plants, used as controls, are treated with the mixture of acetone/tween/DMSO/water not containing the active material. After 24 hours, the plants are contaminated by spraying the leaves with an aqueous suspension of Pyrenophora teres spores (12 000 spores per ml). The spores are collected from a 12-day-old culture. The contaminated barley plants are incubated for 48 hours at 20° C. and at 100% relative humidity, and then for 12 days at 20° C. at 70-80% relative humidity. Grading (% of efficacy) is carried out 14 days after the contamination, in comparison with the control plants.

The next series concerns Botrytis cinerea. Nature of the series: In vivo preventive test on Botrytis cinerea (grey mould). The conditions noted are these: gherkin plants, preventive spray, grading 4 to 5 days after contamination. As to the method: Gherkin plants (“Vert petit de Paris” variety), sown in starter cups on a 50/50 peat soil-pozzolana substrate and grown at 24° C., are treated at the Z11 cotyledon stage by spraying with the active ingredient prepared as described above. Plants, used as controls, are treated with the mixture of acetone/tween/DMSO/water not containing the active material. After 24 hours, the plants are contaminated by spraying the cotyledons with an aqueous suspension of cryopreserved Botrytis cinerea spores (50 000 spores per ml). The spores are suspended in a nutrient solution composed of 10 g/L of PDB, 50 g/L of D-Fructose, 2 g/L of NH4NO3 and 1 g/L of KH2PO4. The contaminated gherkin plants are incubated at 17° C. and at 90% relative humidity. Grading (% of efficacy) is carried out 4 to 5 days after the contamination, in comparison with the control plants.

The subject of a further series is Puccinia recondita. Nature of the series: In vivo preventive test on Puccinia recondita (brown rust on wheat). The following applies: wheat plants, preventive spray, grading 12 days after contamination. The protocol: Wheat plants (“Scipion” variety), sown in starter cups on a 50/50 peat soil-pozzolana substrate and grown at 22° C., are treated at the 1-leaf stage (10 cm height) by spraying with the active ingredient prepared as described above. Plants, used as controls, are treated with the mixture of acetone/tween/DMSO/water not containing the active material. After 24 hours, the plants are contaminated by spraying the leaves with an aqueous suspension of Puccinia recondita spores (100 000 spores per ml). The spores are collected from an infected plant and are suspended in water containing 2.5 ml/l of Tween 80 at 10%. The contaminated wheat plants are incubated for 24 hours at 20° C. and at 100% relative humidity, and then for 10 days at 20° C. and at 70-80% relative humidity. Grading (% of efficacy) is carried out 12 days after the contamination, in comparison with the control plants.

The next series concerns Uromyces appendiculatus. In words: In vivo preventive test on Uromyces appendiculatus (bean rust). The following applies: dose 500 ppm, bean plants, preventive spray, grading 11 days after contamination. As to the method: The active ingredients tested are prepared by homogenization in a mixture of acetone/tween/DMSO, and then diluted with water to obtain the desired active material concentration.
Bean plants (“Saxa” variety), sown in starter cups on a 50/50 peat soil-pozzolana substrate and grown at 24° C., are treated at the 2-leaf stage (9 cm height) by spraying with the active ingredient prepared as described above. Plants, used as controls, are treated with the mixture of acetone/tween/DMSO/water not containing the active material.
After 24 hours, the plants are contaminated by spraying the leaves with an aqueous suspension of Uromyces appendiculatus spores (150 000 spores per ml). The spores are collected from infected plants and are suspended in water containing 2.5 ml/l of Tween 80 at 10%. The contaminated bean plants are incubated for 24 hours at 20° C. and at 100% relative humidity, and then for 10 days at 20° C. and at 70-80% relative humidity.
Grading (% of efficacy) is carried out 11 days after the contamination, in comparison with the control plants.

In the next series the test system is Sphaerotheca fuliginea. In words: In vivo preventive test on Sphaerotheca fuliginea (powdery mildew on cucurbits). The following applies: dose 100 ppm, gherkin plants, preventive spray, grading 12 days after contamination. As to the method:
Gherkin plants (“Vert petit de Paris” variety), sown in starter cups on a 50/50 peat soil-pozzolana substrate and grown at 24° C., are treated at the Z11 cotyledon stage by spraying with the active ingredient prepared as described above. Plants, used as controls, are treated with the mixture of acetone/tween/DMSO/water not containing the active material. After 24 hours, the plants are contaminated by spraying the cotyledons with an aqueous suspension of Sphaerotheca fuliginea spores (100 000 spores per ml). The spores are collected from infected plants. The contaminated gherkin plants are incubated at about 20° C. and at 70-80% relative humidity. Grading (% of efficacy) is carried out 12 days after the contamination, in comparison with the control plants.

Another series concerns Septoria tritici. Nature of the series: In vivo preventive test on Septoria tritici (leaf spot on wheat). The following applies: dose 100 ppm, wheat plants, preventive spray, grading 24 days after contamination. The protocol: Wheat plants (“Scipion” variety), sown in starter cups on a 50/50 peat soil-pozzolana substrate and grown at 22° C., are treated at the 1-leaf stage (10 cm height) by spraying with the active ingredient prepared as described above. Plants, used as controls, are treated with the mixture of acetone/tween/DMSO/water not containing the active material. After 24 hours, the plants are contaminated by spraying the leaves with an aqueous suspension of cryopreserved Septoria tritici spores (500 000 spores per ml). The contaminated wheat plants are incubated for 72 hours at 18° C. and at 100% relative humidity, and then for 21 days at 90% relative humidity. Grading (% of efficacy) is carried out 24 days after the contamination, in comparison with the control plants.

Where only a bound is given, the exact number is not on record here.

As to `CC1CCc2c(NC(=O)c3cccnc3C(F)F)cccc2C1C` (mixture of isomers) [Example 6], in series [1], the logP was 3.24^[a].

Regarding `CC1(C)CCc2cccc(NC(=O)c3cccnc3C(F)F)c2C1` [Example 1, 2-(difluoromethyl)-N-(7,7-dimethyl-5,6,7,8-tetrahydronaphthalen-1-yl)nicotinamide], in series [1], the chromatographic logP (in general, a lipophilicity value derived from retention on a column) was 3.23.

`CC1c2cccc(NC(=O)c3cccnc3C(F)F)c2CCC1(C)C` (stereo not shown) [Example 2]: in series [1], the logP was 3.55^[a].

As to `CC1CCC(C)(C)c2cccc(NC(=O)c3cccnc3C(F)F)c21` (stereo not shown) [Example 3], in series [1], the logP is 3.37^[a].

Turning to `C=C1c2cccc(NC(=O)c3cccnc3C(F)F)c2CCC1(C)C` [Example 4], the logP in series [1] is 3.33^[a]. The compound further registered a biological efficacy in the series on Alternaria brassicae of no less than 70%.

Consider `CC1(C)CCc2c(NC(=O)c3cccnc3C(F)F)cccc2C1=O` [Example 5], for which the logP in series [1] was 2.28^[a]. The same compound displayed a biological efficacy in the series with Pyrenophora teres of no less than 70%.

In series [1], `Cc1cnc(C(F)F)c(C(=O)Nc2cccc3c2CCC(C)(C)C3)c1` [Example 7, 2-(difluoromethyl)-N-(6,6-dimethyl-5,6,7,8-tetrahydronaphthalen-1-yl)-5-methylnicotinamide] displayed a chromatographic logP of 3.52.

As for `CON=C1CCCc2c(NC(=O)c3cc(C)cnc3C(F)F)cccc21` [Example 8], the logP in series [1] is 2.75^[a].

`CON=C1CCCc2c(NC(=O)c3cccnc3C(F)F)cccc21` [Example 9]: in series [1], the logP was 2.49^[a]. The biological efficacy in the series on Alternaria brassicae is no less than 90%; with Botrytis cinerea (dose 500 ppm) it was no less than 70%; in the series on Puccinia recondita (dose 500 ppm) it was no less than 70%; in the series on Uromyces appendiculatus it was no less than 70%.

As to `Cc1cnc(C(F)F)c(C(=O)Nc2ccc(F)c3c2CCCC3(C)C)c1` [Example 10], in series [1], the logP is 3.57^[a].

On to `CC1(C)CCCc2c(NC(=O)c3ccc(Cl)nc3C(F)F)ccc(F)c21` [Example 11], for which the logP in series [1] is 3.94^[a].

Consider `CC1(C)CCCc2c(NC(=O)c3cccnc3C(F)F)ccc(F)c21` [Example 12], for which, in series [1], the logP is 3.29^[a].

As for `CCON=C1CCCc2c(NC(=O)c3cc(C)cnc3C(F)F)cccc21` [Example 13], the logP in series [1] was 3.19^[a].

For the compound `CC1(C)CCc2c(cccc2NC(=O)c2cccnc2C(F)F)C1` [Example 14], the logP in series [1] is 3.23^[a].

In the case of `CC1(C)CCCc2c(NC(=S)c3cccnc3C(F)F)ccc(F)c21` [Example 15], the logP in series [1] was 3.79^[a].

With `CCON=C1CCCc2c(NC(=O)c3cccnc3C(F)F)cccc21` [Example 16], in series [1], the logP was 2.90^[a].

Take `Cc1cnc(C(F)F)c(C(=S)Nc2cccc3c2CCC(C)(C)C3)c1` [Example 17, 2-(difluoromethyl)-N-(6,6-dimethyl-5,6,7,8-tetrahydronaphthalen-1-yl)-5-methylpyridine-3-carbothioamide]: the chromatographic logP in series [1] came to 3.94.

On to `CC(C)C1CCCc2c(NC(=O)c3cccnc3C(F)F)cccc21` (stereo not shown) [Example 18], for which the logP in series [1] was 3.60^[a]. The biological efficacy in the series with Botrytis cinerea (dose 100 ppm) is listed as no less than 90%; in the series with Puccinia recondita (dose 100 ppm), no less than 90%; with Sphaerotheca fuliginea, no less than 80%.

In the case of `CC(C)C1CCCc2c(NC(=O)c3ccc(Cl)nc3C(F)F)cccc21` (stereo not shown) [Example 19], the logP in series [1] was 4.31^[a]. Besides, the biological efficacy in the series with Puccinia recondita (dose 100 ppm) and in the series with Septoria tritici was no less than 70% throughout.

For `Cc1cnc(C(F)F)c(C(=O)Nc2cccc3c2CCCC3(C)C)c1` [Example 20], the logP in series [1] is 3.46^[a].
